Measurements published in ChEMBL document CHEMBL5543172, “Novel Isoalantolactone-Based Derivatives as Potent NLRP3 Inflammasome Inhibitors: Design, Synthesis, and Biological Characterization” (J Med Chem, 2024).
Calls of active or inactive are those of the source. The calls are words filed in the database; no cut-off is given here.

Tests used:
[1] = Drug distribution in C57BL/6 mouse colon at 30 mg/kg, ip measured after 8 hrs by LC-MS/MS analysis; format: ADME, organism-based; settings: read-out: Drug uptake
[2] = target: P2X purinoceptor 3 (Homo sapiens) (UniProt P56373); assay: Activation of P2X3 (unknown origin) at 1 uM relative to control
Chain of P2X purinoceptor 3 (Homo sapiens) (P56373 whole entry): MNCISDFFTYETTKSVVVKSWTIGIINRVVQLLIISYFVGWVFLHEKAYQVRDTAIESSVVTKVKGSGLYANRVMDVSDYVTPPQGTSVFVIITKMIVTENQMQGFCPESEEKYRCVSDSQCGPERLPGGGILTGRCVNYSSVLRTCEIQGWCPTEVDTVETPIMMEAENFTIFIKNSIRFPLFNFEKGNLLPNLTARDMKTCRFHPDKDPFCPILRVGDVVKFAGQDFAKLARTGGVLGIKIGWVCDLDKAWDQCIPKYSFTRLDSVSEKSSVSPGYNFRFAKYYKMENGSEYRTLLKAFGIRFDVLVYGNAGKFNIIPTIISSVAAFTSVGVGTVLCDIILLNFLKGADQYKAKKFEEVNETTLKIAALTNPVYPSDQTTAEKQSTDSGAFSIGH

[3] = Drug distribution in C57BL/6 mouse plasma at 30 mg/kg, ip measured after 8 hrs by LC-MS/MS analysis; format: ADME, organism-based
[4] = target: Cannabinoid receptor 2 (Homo sapiens) (UniProt P34972); assay: Activation of CB2 receptor (unknown origin) at 1 uM relative to control
[5] = target: Cytochrome P450 1A2 (Homo sapiens, UniProt P05177); assay: Inhibition of CYP1A2 in human liver microsomes using phenacetin as substrate preincubated for 5 mins followed by NADPH addition and measured after 30 to 60 mins by LC-MS/MS analysis; format: ADME, Microsome
[6] = target: Prostaglandin E2 receptor EP2 subtype (Homo sapiens) (UniProt P43116); assay: Activation of EP2 receptor (unknown origin) at 1 uM relative to control
Chain of Prostaglandin E2 receptor EP2 subtype (Homo sapiens) (P43116 whole entry): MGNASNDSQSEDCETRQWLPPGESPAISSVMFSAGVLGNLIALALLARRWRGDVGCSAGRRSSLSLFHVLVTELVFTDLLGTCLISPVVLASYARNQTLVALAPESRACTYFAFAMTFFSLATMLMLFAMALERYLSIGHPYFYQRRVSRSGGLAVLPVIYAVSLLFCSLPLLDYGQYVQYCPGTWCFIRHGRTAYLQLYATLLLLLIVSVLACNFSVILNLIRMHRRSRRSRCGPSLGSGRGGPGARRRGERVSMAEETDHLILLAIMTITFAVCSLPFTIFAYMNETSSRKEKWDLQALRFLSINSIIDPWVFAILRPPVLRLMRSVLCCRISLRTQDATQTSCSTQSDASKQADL

[7] = Cytotoxicity against human PBMC cells at 1.25 uM measured after 24 hrs by CCK-8 method; format: toxicity, cell-based
[8] = tested on: THP-1; assay: Inhibition of NLRP3-NEK7 interaction in LPS/nigericin stimulated human THP-1 cells at 1 uM preincubated with LPS for 3 hrs followed by compound addition for 40 mins and further stimulated with nigericin for 40 mins by immunoprecipitation analysis; format: cell-based; settings: time 80.0 min
[9] = tested on: Mus musculus; assay: Anti-colitis activity against DSS-induced ulcerative colitis C57BL/6 mouse model assessed as reduction in DAI score at 15 to 30 mg/kg, ip administered daily and measured upto 10 days; format: functional, organism-based; settings: dose 15-30 mg/kg, time <= 10.0 day
[10] = target: Cytochrome P450 2B6 (Homo sapiens, UniProt P20813); assay: Inhibition of CYP2B6 in human liver microsomes preincubated for 5 mins followed by NADPH addition and measured after 30 to 60 mins by LC-MS/MS analysis; format: ADME, Microsome
Chain of Cytochrome P450 2B6 (P20813 whole entry): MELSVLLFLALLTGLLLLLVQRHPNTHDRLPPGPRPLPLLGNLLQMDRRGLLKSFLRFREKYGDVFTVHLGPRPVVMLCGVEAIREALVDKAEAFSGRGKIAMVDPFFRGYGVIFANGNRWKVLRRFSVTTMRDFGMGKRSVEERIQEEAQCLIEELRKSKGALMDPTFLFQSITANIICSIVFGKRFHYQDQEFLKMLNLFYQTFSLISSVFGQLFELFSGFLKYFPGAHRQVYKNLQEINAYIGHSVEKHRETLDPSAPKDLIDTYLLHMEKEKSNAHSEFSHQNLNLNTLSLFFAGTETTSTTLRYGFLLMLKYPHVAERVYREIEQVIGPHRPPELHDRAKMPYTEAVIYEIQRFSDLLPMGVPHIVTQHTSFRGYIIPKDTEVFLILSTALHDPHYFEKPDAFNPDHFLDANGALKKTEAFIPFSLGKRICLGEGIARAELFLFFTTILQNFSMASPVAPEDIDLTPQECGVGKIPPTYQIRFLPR

[11] = target: Cytochrome P450 3A4 (Homo sapiens, UniProt P08684); assay: Inhibition of CYP3A4 in human liver microsomes using midazolam as substrate preincubated for 5 mins followed by NADPH addition and measured after 30 to 60 mins by LC-MS/MS analysis; format: ADME, Microsome
[12] = target: Prostaglandin G/H synthase 2 (Homo sapiens) (UniProt P35354); assay: Inhibition of COX2 (unknown origin) at 1 uM relative to control
Chain of Prostaglandin G/H synthase 2 (Homo sapiens) (P35354 whole entry): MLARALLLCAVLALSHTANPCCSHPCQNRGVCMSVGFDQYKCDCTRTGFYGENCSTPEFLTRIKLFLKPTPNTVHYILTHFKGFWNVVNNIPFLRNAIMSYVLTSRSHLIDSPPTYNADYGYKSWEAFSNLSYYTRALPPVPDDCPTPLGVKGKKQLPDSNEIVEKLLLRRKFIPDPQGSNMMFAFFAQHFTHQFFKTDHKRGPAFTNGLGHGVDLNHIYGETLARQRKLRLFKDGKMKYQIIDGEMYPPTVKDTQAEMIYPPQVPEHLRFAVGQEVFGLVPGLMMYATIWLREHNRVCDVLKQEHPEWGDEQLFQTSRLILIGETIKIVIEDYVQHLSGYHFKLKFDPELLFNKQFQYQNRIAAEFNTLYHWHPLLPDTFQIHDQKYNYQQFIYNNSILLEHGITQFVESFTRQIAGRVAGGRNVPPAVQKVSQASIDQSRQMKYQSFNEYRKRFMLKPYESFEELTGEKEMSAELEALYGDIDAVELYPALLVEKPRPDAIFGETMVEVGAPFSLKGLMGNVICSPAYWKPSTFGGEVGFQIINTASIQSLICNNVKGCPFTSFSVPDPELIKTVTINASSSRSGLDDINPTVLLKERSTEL

[13] = target: Prostaglandin E2 receptor EP2 subtype (Homo sapiens) (UniProt P43116); assay: Inhibition of EP2 receptor (unknown origin) at 1 uM relative to control
[14] = target: Mu-type opioid receptor (Homo sapiens) (UniProt P35372); assay: Activation of mu opioid receptor (unknown origin) at 1 uM relative to control
Chain of Mu-type opioid receptor (Homo sapiens) (P35372 whole entry, the tested form may be a part): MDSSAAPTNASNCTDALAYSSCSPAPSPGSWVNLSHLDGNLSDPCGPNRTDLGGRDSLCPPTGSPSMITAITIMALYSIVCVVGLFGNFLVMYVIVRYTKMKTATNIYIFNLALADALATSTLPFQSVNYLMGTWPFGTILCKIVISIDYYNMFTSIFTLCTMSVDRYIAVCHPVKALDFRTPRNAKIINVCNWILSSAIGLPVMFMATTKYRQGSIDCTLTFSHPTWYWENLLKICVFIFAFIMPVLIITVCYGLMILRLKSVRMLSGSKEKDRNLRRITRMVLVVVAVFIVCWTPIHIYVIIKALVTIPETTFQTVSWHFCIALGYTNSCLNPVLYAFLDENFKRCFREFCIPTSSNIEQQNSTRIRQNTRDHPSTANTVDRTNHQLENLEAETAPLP

[15] = target: NACHT, LRR and PYD domains-containing protein 3 (Mus musculus) (UniProt Q8R4B8); assay: Inhibition of NLRP3 inflammasome activation in LPS/Nigericin induced mouse BMDM cells assessed as effect on pro-casapase-1 expression at 0.25 to 1 uM preincubated with LPS for 3 hrs followed by compound addition for 40 mins and further stimulated with nigericin for 40 mins by Western blot analysis; format: cell-based; settings: dose 0.25-1 µM, time 80.0 min
Chain of NACHT, LRR and PYD domains-containing protein 3 (Mus musculus) (Q8R4B8 whole entry, the tested form may be a part): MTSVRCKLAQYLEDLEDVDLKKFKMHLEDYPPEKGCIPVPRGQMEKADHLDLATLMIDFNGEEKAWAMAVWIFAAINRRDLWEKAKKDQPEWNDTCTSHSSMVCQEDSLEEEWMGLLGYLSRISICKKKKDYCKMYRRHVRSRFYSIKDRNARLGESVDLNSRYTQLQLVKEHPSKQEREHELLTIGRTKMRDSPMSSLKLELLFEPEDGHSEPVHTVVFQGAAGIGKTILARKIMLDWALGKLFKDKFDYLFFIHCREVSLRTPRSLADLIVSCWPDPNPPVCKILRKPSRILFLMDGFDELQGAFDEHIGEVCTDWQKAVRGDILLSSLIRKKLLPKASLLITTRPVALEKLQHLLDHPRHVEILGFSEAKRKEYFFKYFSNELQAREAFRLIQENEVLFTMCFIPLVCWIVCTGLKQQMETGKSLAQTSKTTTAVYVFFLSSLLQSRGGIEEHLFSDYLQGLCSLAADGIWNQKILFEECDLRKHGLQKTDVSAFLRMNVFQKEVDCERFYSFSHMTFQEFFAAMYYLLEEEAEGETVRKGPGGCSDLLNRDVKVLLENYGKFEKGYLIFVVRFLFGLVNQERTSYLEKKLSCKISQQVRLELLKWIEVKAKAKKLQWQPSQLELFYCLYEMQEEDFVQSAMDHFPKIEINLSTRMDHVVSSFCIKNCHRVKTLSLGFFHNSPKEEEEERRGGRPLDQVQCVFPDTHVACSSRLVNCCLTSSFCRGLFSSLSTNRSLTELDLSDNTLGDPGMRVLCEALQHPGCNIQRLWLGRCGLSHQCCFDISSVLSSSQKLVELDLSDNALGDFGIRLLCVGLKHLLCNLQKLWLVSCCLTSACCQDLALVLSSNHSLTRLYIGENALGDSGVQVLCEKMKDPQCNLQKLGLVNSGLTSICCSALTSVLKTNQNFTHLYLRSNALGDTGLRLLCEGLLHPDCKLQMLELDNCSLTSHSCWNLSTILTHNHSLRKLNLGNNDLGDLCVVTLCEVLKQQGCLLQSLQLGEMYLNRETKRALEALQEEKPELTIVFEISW

[16] = target: Substance-P receptor (Homo sapiens) (UniProt P25103); assay: Activation of NK1 receptor (unknown origin) at 1 uM relative to control
Chain of Substance-P receptor (Homo sapiens) (P25103 whole entry): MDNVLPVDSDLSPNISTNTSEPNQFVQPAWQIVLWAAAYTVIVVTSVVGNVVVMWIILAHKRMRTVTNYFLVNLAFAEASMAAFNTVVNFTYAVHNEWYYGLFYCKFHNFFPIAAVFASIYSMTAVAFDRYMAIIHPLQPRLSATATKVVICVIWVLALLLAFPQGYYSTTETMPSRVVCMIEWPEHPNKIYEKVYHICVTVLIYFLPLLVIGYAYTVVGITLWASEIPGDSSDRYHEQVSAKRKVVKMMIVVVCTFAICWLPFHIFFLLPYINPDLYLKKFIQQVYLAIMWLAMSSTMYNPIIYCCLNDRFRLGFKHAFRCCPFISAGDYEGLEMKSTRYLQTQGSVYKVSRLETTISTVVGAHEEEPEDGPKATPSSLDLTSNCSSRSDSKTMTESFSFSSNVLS

[17] = target: Voltage-gated inwardly rectifying potassium channel KCNH2 (Homo sapiens, UniProt Q12809); assay: Inhibition of human ERG expressed in HEK293 cells; format: toxicity, cell-based
[18] = tested on: THP-1; assay: Binding affinity to NLRP3deltaLRR mutant in PMA- differentiated human THP-1 cells assessed as protection of pronase-mediated protein degradation at 100 to 1000 uM pretreated with LPS for 3 hrs followed by incubation with compound for 50 mins followed by pronase digestion for 30 mins by DARTS analysis; format: cell-based; settings: dose 100-1000 µM, time 80.0 min
[19] = target: NACHT, LRR and PYD domains-containing protein 3 (Mus musculus) (UniProt Q8R4B8); assay: Inhibition of NLRP3 inflammasome activation in LPS/Nigericin induced mouse BMDM cells assessed as effect on pro-IL-1 beta expression at 0.25 to 1 uM preincubated with LPS for 3 hrs followed by compound addition for 40 mins and further stimulated with nigericin for 40 mins by Western blot analysis; format: cell-based; settings: dose 0.25-1 µM, time 80.0 min
[20] = target: Glucocorticoid receptor (Homo sapiens) (UniProt P04150); assay: Inhibition of GR receptor (unknown origin) at 1 uM relative to control
[21] = tested on: BMDM; assay: Inhibition of pyroptosis in LPS/nigericin induced […] cells assessed as reduction in red fluorescence production preincubated with LPS for 3 hrs followed by compound addition for 40 mins and further stimulated with nigericin for 40 mins by PI staining based inverted microscopy based analysis; format: functional, cell-based; settings: dose 0.25-1 µM, time 80.0 min
[22] = AUC (0 to t) in male C57BL/6 mouse at 30 mg/kg, ip measured upto 1440 mins by LC-MS/MS analysis; format: ADME, organism-based; settings: in vivo
[23] = Drug distribution in C57BL/6 mouse plasma at 30 mg/kg, ip measured after 0.5 hrs by LC-MS/MS analysis; format: ADME, organism-based
[24] = tested on: Mus musculus; assay: Anti-colitis activity against DSS-induced ulcerative colitis C57BL/6 mouse model assessed as alleviation of reduced crypt count at 15 to 30 mg/kg, ip administered daily and measured after 10 days by H and E staining based analysis; format: functional, organism-based; settings: dose 15-30 mg/kg, time 10.0 day
[25] = Drug distribution in C57BL/6 mouse plasma at 30 mg/kg, ip measured after 2 hrs by LC-MS/MS analysis; format: ADME, organism-based
[26] = tested on: BMDM; assay: Inhibition of pyroptosis in LPS/nigericin induced […] cells assessed as reduction in […] at […] preincubated with LPS for 3 hrs followed by compound addition for 40 mins and further stimulated with nigericin for 40 mins by LDH assay; format: functional, cell-based; settings: dose lower 0.25 µM, time 80.0 min
[27] = target: Mu-type opioid receptor (Homo sapiens) (UniProt P35372); assay: Inhibition of mu opioid receptor (unknown origin) at 1 uM relative to control
[28] = target: Histamine H1 receptor (Homo sapiens) (UniProt P35367); assay: Inhibition of Histamine H1 receptor (unknown origin) at 1 uM relative to control
[29] = target: Sodium-dependent noradrenaline transporter (Homo sapiens) (UniProt P23975); assay: Inhibition of NET (unknown origin) at 1 uM relative to control
Chain of Sodium-dependent noradrenaline transporter (Homo sapiens) (P23975 whole entry): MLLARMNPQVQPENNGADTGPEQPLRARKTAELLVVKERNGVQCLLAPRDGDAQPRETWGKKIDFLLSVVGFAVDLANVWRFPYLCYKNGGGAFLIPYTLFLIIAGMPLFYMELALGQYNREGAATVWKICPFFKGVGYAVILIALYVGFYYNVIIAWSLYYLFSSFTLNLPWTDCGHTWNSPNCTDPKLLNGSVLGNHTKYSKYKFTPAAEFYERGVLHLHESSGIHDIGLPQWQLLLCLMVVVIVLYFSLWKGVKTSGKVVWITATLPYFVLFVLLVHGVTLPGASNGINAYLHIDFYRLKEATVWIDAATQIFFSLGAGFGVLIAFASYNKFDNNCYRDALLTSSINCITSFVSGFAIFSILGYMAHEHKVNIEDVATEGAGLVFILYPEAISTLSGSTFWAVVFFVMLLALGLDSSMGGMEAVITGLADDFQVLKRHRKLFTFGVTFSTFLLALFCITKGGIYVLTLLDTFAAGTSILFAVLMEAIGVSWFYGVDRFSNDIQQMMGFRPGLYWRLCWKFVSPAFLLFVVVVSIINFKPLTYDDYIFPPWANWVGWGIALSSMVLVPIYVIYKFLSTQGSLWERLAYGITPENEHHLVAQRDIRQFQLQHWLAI

[30] = target: Muscarinic acetylcholine receptor M3 (Homo sapiens) (UniProt P20309); assay: Inhibition of muscarinic M3 receptor (unknown origin) at 1 uM relative to control
Chain of Muscarinic acetylcholine receptor M3 (Homo sapiens) (P20309 whole entry, looked up): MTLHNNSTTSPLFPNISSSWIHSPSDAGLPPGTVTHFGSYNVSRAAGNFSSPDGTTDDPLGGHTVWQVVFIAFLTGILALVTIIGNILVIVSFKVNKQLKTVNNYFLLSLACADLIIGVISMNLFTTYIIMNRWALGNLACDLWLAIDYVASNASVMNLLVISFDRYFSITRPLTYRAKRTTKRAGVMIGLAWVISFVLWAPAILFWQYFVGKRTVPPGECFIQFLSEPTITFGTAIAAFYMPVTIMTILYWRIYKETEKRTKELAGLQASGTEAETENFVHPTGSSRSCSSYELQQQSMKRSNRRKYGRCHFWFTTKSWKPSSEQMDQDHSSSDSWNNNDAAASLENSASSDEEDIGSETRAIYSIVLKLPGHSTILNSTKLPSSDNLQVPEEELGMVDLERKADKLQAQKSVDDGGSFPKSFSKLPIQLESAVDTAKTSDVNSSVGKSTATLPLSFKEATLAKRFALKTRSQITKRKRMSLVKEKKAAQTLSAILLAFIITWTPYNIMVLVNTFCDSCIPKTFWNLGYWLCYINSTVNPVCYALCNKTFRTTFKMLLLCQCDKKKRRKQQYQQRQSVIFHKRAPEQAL

[31] = target: Androgen receptor (Homo sapiens) (UniProt P10275); assay: Inhibition of Androgen receptor (unknown origin) at 1 uM relative to control
[32] = target: Cytochrome P450 2D6 (Homo sapiens, UniProt P10635); assay: Inhibition of CYP2D6 in human liver microsomes using dextromethorphan as substrate preincubated for 5 mins followed by NADPH addition and measured after 30 to 60 mins by LC-MS/MS analysis; format: ADME, Microsome
[33] = target: Sodium-dependent serotonin transporter (Homo sapiens) (UniProt P31645); assay: Inhibition of 5-HTT (unknown origin) at 1 uM relative to control
[34] = target: Alpha-1A adrenergic receptor (Homo sapiens) (UniProt P35348); assay: Activation of alpha 1A adrenergic receptor (unknown origin) at 1 uM relative to control
[35] = target: Sodium-dependent noradrenaline transporter (Homo sapiens) (UniProt P23975); assay: Activation of NET (unknown origin) at 1 uM relative to control

C=C1C(=O)O[C@@H]2C[C@@]3(C)CC[C@@H](OC(=O)c4cnc(Cl)cc4Cl)C(=C)[C@@H]3C[C@H]12
concentration at 8 h [1]: 80.2 ng/g | Activity [2]: < 50% | concentration at 8 h [3]: 1.52 ng/mL | Activity [4]: < 50% | IC50 [5]: > 100 µM | Activity [6]: < 50% | Activity [7]: Toxic | inhibition [8]: Active | Activity [9]: Active | IC50 [10]: > 100 µM | IC50 [11]: > 100 µM | inhibition [12]: < 50% | inhibition [13]: < 50% | Activity [14]: < 50% | Activity [15]: inactive | Activity [16]: < 50% | IC50 [17]: 10.6 µM | Activity [18]: Active | inhibition [19]: inactive | inhibition [20]: < 50% | inhibition [21]: Active | AUC(0-t) at 24 h [22]: 0.0168 µg·h/mL | concentration at 0.5 h [23]: 0.22 ng/mL | Activity [24]: Active | concentration at 2 h [25]: 1.97 ng/mL | inhibition [26]: Active | inhibition [27]: < 50% | inhibition [28]: < 50% | inhibition [29]: < 50% | inhibition [30]: < 50% | inhibition [31]: < 50% | IC50 [32]: > 100 µM | inhibition [33]: < 50% | Activity [34]: < 50% | Activity [35]: < 50%
